For the assay, the system named is amphetamine-induced symptoms. Kind of assay: antagonism of amphetamine-induced symptoms in rats (blocking of amphetamine behavior of cage movement). The assay is classed as in vivo. The note with it: Rattus norvegicus, ip. An excerpt:
The tranquilizing agents of the present invention are characterized by relief of such schizophrenic manifestations in humans as hallucinations, hostility, suspiciousness, emotional and social withdrawal, anxiety, agitation and tension. Standard procedures of detecting and comparing tranquilizing activity of compounds in this series and for which there is an excellent correlation with human efficacy is the antagonism of amphetamine-induced symptoms in rats test as taught by A. Weissman, et al., J. Pharmacol. Exp. Ther., 151, 339 (1966) and by Quinton, et al., Nature, 200, 178 (1963).
The effects of the compounds of the present invention on prominent amphetamine-induced symptoms were studied in rats by a rating scale modeled after the one reported by Quinton and Halliwell; and Weissman. Groups of five rats were placed in a covered plastic cage measuring approximately 26 cm. × 42 cm. × 16 cm. After a brief period of acclimation in the cage, the rats in each group were treated intraperitoneally (i.p.) with the test compound. […] On the basis of dose-response data after amphetamine it was possible to determine the effective dose of the compound necessary to antagonize or block the characteristic amphetamine behavior of cage movement for fifty percent of the rats tested (ED50). The time of rating chosen coincides with the peak action of amphetamine which is 60-80 min. after treatment with this agent.
Employing the above-described procedure, the following compounds were tested for their ability to block the behavior effects to amphetamine, the results being reported as the ED50 in mg./kg. at the indicated times: […]

[1] abbreviates: test compound i.p., d-amphetamine sulfate 5 mg./kg. i.p. 1 hr. later, rated one hour after amphetamine, read-out: ED50, 1 hr.
[2] abbreviates: test compound i.p., d-amphetamine sulfate 5 mg./kg. i.p. 5 hrs. later, rated one hour after amphetamine, read-out: ED50, 5 hrs.

Structures are written as SMILES. Where two headings read alike, the source gives them in different places.

The results in this text go back to US4006164A, “4-Aryl-1,2,3,4-tetrahydropyrrolo[3,4-b]indoles” (Pfizer Inc., priority 1975, dated 1977).

`OC(CCCN1Cc2c(n(-c3ccc(F)cc3)c3ccc(F)cc23)C1)c1ccc(F)cc1` (centres unmarked): the ED50 by setting is: under setting [1], 1 to 3.2 mg/kg; under setting [2], 1 to 3.2 mg/kg.
Consider `CN1Cc2c(n(-c3ccc(F)cc3)c3ccc(F)cc23)C1` [X = F, Z = F, R = CH3, 7-Fluoro-4-(p-fluorophenyl)-2-methyl-1,2,3,4-tetrahydropyrrolo[3,4-b]indole], for which the ED50 is, setting by setting: under setting [1], 3.2 to 5.6 mg/kg; under setting [2], greater than 10 mg/kg.
Take `CN(C)CCCN1c2ccccc2Sc2ccc(Cl)cc21` [chlorpromazine, reference compound]: the ED50 (1 h, read-out: ED50, 1 hr.) was greater than 10 mg/kg.
